Reference: patent US7709471B2, “Compounds” (AstraZeneca AB, priority 2006, dated 2010)

What was measured:
[1] = target: recombinant Plk1 (Homo sapiens, UniProt P53350); experiment: In Vitro Plk1 Enzyme Assay (SPA, GST-Cdc25C phosphorylation); type: biochemical; conditions: ATP 64 nM, 90 minutes, read-out: IC50 (Plk1 enzyme inhibition)
[2] = test system: human colon tumour cell line HT29; experiment: Cellular Assay (phosphohistone H3 Ser10 mitotic marker, HT29); type: cell-based; conditions: HT-29, 24 h, HT29 cells, read-out: IC50 (cellular assay, phosphohistone H3)

Chain of recombinant Plk1 (P53350 whole entry): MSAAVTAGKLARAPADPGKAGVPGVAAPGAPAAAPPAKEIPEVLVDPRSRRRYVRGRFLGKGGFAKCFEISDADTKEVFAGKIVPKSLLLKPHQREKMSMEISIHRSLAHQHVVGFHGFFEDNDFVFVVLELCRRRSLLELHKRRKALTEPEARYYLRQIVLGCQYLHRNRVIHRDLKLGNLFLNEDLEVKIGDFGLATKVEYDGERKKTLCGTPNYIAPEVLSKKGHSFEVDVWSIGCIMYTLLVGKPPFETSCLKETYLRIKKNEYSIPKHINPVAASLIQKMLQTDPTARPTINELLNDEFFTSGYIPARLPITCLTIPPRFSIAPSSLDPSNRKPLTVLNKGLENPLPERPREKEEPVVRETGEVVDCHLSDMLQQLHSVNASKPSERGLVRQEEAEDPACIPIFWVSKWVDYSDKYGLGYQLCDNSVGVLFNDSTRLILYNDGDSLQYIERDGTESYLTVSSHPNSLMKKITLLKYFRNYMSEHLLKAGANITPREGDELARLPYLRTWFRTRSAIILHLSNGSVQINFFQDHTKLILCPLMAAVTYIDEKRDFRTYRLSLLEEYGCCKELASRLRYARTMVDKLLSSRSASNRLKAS

IC50 [1]	IC50 [2]	Compound
< 300 nM	< 300 nM	COc1cc(C(=O)NCCN2CCN(C)CC2)ccc1Nc1ncc2c(n1)N(C1CCCC1)CCC(=O)N2C [Example 34, 4-[(6-cyclopentyl-2-methyl-3-oxo-2,6,8,10-tetrazabicyclo[5.4.0]undeca-8,10,12-trien-9-yl)amino]-3-methoxy-N-[2-(4-methylpiperazin-1-yl)ethyl]benzamide]
< 1000 nM	< 30000 nM	CCc1ccccc1Nc1ncc2c(n1)N(C1CCCC1)CCC(=O)N2C [Example 143, 6-cyclopentyl-9-[(2-ethylphenyl)amino]-2-methyl-2,6,8,10-tetrazabicyclo[5.4.0]undeca-8,10,12-trien-3-one]
< 300 nM	< 300 nM	COc1cc(C(=O)NC2CCNC2)ccc1Nc1ncc2c(n1)N(C1CCCC1)CCC(=O)N2C (stereo not shown) [Example 45, 4-[(6-cyclopentyl-2-methyl-3-oxo-2,6,8,10-tetrazabicyclo[5.4.0]undeca-8,10,12-trien-9-yl)amino]-3-methoxy-N-pyrrolidin-3-yl-benzamide]
< 1000 nM	< 30000 nM	COCCOc1cc(C(=O)NC2CCN(C)CC2)ccc1Nc1ncc2c(n1)N(C1CCCC1)CCC(=O)N2C [Example 195, 4-[(6-cyclopentyl-2-methyl-3-oxo-2,6,8,10-tetrazabicyclo[5.4.0]undeca-8,10,12-trien-9-yl)amino]-3-(2-methoxyethoxy)-N-(1-methyl-4-piperidyl)benzamide]
< 300 nM	< 300 nM	CNCCNC(=O)c1ccc(Nc2ncc3c(n2)N(C2CCCC2)CCC(=O)N3C)c(OC)c1 [Example 43, 4-[(6-cyclopentyl-2-methyl-3-oxo-2,6,8,10-tetrazabicyclo[5.4.0]undeca-8,10,12-trien-9-yl)amino]-3-methoxy-N-(2-methylaminoethyl)benzamide]
< 300 nM	< 30000 nM	CN1CCC(NC(=O)c2ccc(Nc3ncc4c(n3)N(C3CCCC3)CCC(=O)N4C)c(O)c2)CC1 [Example 186, 4-[(6-cyclopentyl-2-methyl-3-oxo-2,6,8,10-tetrazabicyclo[5.4.0]undeca-8,10,12-trien-9-yl)amino]-3-hydroxy-N-(1-methyl-4-piperidyl)benzamide]
< 300 nM	< 300 nM	COc1cc(C(=O)NC2CCN(C)CC2)ccc1Nc1ncc2c(n1)N(C1CCCC1)CC(C)(C)C(=O)N2C [Example 235, 4-[(2-cyclopentyl-4,4,6-trimethyl-5-oxo-2,6,9,11-tetrazabicyclo[5.4.0]undeca-7,9,11-trien-10-yl)amino]-3-methoxy-N-(1-methyl-4-piperidyl)benzamide]
< 100000 nM	< 300 nM	COc1cc(C(=O)NC2CCN(C(=O)OC(C)(C)C)CC2)ccc1Nc1ncc2c(n1)N(C1CCCC1)CCC(=O)N2C [Example 50, tert-butyl 4-[[4-[(6-cyclopentyl-2-methyl-3-oxo-2,6,8,10-tetrazabicyclo[5.4.0]undeca-8,10,12-trien-9-yl)amino]-3-methoxy-benzoyl]amino]piperidine-1-carboxylate]
< 100000 nM	< 300 nM	CN1CCC(NC(=O)c2ccc(Nc3ncc4c(n3)N(C3CCCC3)CCC(=O)N4C)c(OC(F)(F)F)c2)CC1 [Example 199, 4-[(6-cyclopentyl-2-methyl-3-oxo-2,6,8,10-tetrazabicyclo[5.4.0]undeca-8,10,12-trien-9-yl)amino]-N-(1-methyl-4-piperidyl)-3-(trifluoromethoxy)benzamide]
< 300 nM	< 300 nM	CCN(CC)C1CCC(NC(=O)c2ccc(Nc3ncc4c(n3)N(C3CCCC3)CCC(=O)N4C)c(OC)c2)CC1 (stereo not shown) [Example 58, 4-[(6-cyclopentyl-2-methyl-3-oxo-2,6,8,10-tetrazabicyclo[5.4.0]undeca-8,10,12-trien-9-yl)amino]-N-(4-diethylaminocyclohexyl)-3-methoxy-benzamide]
< 300 nM	< 300 nM	COc1cc(C(=O)NC2CCN(C)CC2)ccc1Nc1ncc2c(n1)N(C(C)C)CCC(=O)N2C [Example 6, 3-Methoxy-4-[(6-methyl-5-oxo-2-propan-2-yl-2,6,9,11-tetrazabicyclo[5.4.0]undeca-7,9,11-trien-10-yl)amino]-N-(1-methyl-4-piperidyl)benzamide]
< 300 nM	< 300 nM	CCN1CCC(NC(=O)c2ccc(Nc3ncc4c(n3)N(C3CCCC3)CCC(=O)N4C)c(Cl)c2)CC1 [Example 316, 3-chloro-4-[(2-cyclopentyl-6-methyl-5-oxo-2,6,9,11-tetrazabicyclo[5.4.0]undeca-7,9,11-trien-10-yl)amino]-N-(1-ethyl-4-piperidyl)benzamide]
< 1000 nM	< 300 nM	COc1cc(C(=O)NCc2ccncc2)ccc1Nc1ncc2c(n1)N(C1CCCC1)CCC(=O)N2C [Example 80, 4-[(6-cyclopentyl-2-methyl-3-oxo-2,6,8,10-tetrazabicyclo[5.4.0]undeca-8,10,12-trien-9-yl)amino]-3-methoxy-N-(pyridin-4-ylmethyl)benzamide]
< 100000 nM	< 30000 nM	O=C1CCN(C2CCCC2)c2nc(Nc3ccc(C(=O)NCCN4CCOCC4)cc3Cl)ncc2N1 [Example 257, 3-chloro-4-[(6-cyclopentyl-3-oxo-2,6,8,10-tetrazabicyclo[5.4.0]undeca-8,10,12-trien-9-yl)amino]-N-(2-morpholin-4-ylethyl)benzamide]
< 300 nM	< 300 nM	COc1cc(C(=O)NCCN(C)C)ccc1Nc1ncc2c(n1)N(C1CCCC1)CC1(CC1)C(=O)N2C [Example 387, 4-(9′-cyclopentyl-5′-methyl-6′-oxo-5′,6′,8′,9′-tetrahydrospiro[cyclopropane-1,7′-pyrimido[5,4-b][1,4]diazepine]-2′-ylamino)-N-(2-dimethylaminoethyl)-3-methoxy-benzamide]
< 100000 nM	< 1000 nM	COc1cc(C(=O)N[C@H]2[C@@H]3CN(C(=O)OCc4ccccc4)C[C@@H]32)ccc1Nc1ncc2c(n1)N(C1CCCC1)CCC(=O)N2C [Example 51, Benzyl(1S,5R)-6-[[4-[(6-cyclopentyl-2-methyl-3-oxo-2,6,8,10-tetrazabicyclo[5.4.0]undeca-8,10,12-trien-9-yl)amino]-3-methoxy-benzoyl]amino]-3-azabicyclo[3.1.0]hexane-3-carboxylate]
< 300 nM	< 300 nM	CCN1CC[C@@H](NC(=O)c2ccc(Nc3ncc4c(n3)N(C3CCCC3)CCC(=O)N4C)c(OC)c2)C1 [Example 326, 4-[(2-cyclopentyl-6-methyl-5-oxo-2,6,9,11-tetrazabicyclo[5.4.0]undeca-7,9,11-trien-10-yl)amino]-N-[(3R)-1-ethylpyrrolidin-3-yl]-3-methoxy-benzamide]
< 100000 nM	< 300 nM	COc1cc(C(=O)N[C@@H]2CC[C@H](C(=O)N(C)C)C2)ccc1Nc1ncc2c(n1)N(C1CCCC1)CCC(=O)N2C [Example 88, 4-[(6-cyclopentyl-2-methyl-3-oxo-2,6,8,10-tetrazabicyclo[5.4.0]undeca-8,10,12-trien-9-yl)amino]-N-[(1R,3S)-3-(dimethylcarbamoyl)cyclopentyl]-3-methoxy-benzamide]
< 300 nM	< 300 nM	COCCN1CCC(NC(=O)c2ccc(Nc3ncc4c(n3)N(C3CCCC3)CCC(=O)N4C)c(OC)c2)CC1 [Example 29, 4-[(6-cyclopentyl-2-methyl-3-oxo-2,6,8,10-tetrazabicyclo[5.4.0]undeca-8,10,12-trien-9-yl)amino]-3-methoxy-N-[1-(2-methoxyethyl)-4-piperidyl]benzamide]
< 1000 nM	< 30000 nM	CC(=O)c1cccc(Nc2ncc3c(n2)N(C2CCCC2)CCC(=O)N3C)c1 [Example 165, 9-[(3-acetylphenyl)amino]-6-cyclopentyl-2-methyl-2,6,8,10-tetrazabicyclo[5.4.0]undeca-8,10,12-trien-3-one]
< 1000 nM	< 30000 nM	CN1C(=O)CCN(C2CCCC2)c2nc(Nc3cccc(CCO)c3)ncc21 [Example 179, 6-cyclopentyl-9-[[3-(2-hydroxyethyl)phenyl]amino]-2-methyl-2,6,8,10-tetrazabicyclo[5.4.0]undeca-8,10,12-trien-3-one]
< 300 nM	< 300 nM	COc1cc(C(=O)NC2CCC(N(C)C)CC2)ccc1Nc1ncc2c(n1)N(C1CCCC1)CCC(=O)N2C (stereo not shown) [Example 60, 4-[(6-cyclopentyl-2-methyl-3-oxo-2,6,8,10-tetrazabicyclo[5.4.0]undeca-8,10,12-trien-9-yl)amino]-N-(4-dimethylaminocyclohexyl)-3-methoxy-benzamide]
< 300 nM	< 300 nM	CN1CCC(NC(=O)c2ccc(Nc3ncc4c(n3)N(C3CCCC3)CCC(=O)N4C)c(Cl)c2)CC1 [Example 185, 3-chloro-4-[(6-cyclopentyl-2-methyl-3-oxo-2,6,8,10-tetrazabicyclo[5.4.0]undeca-8,10,12-trien-9-yl)amino]-N-(1-methyl-4-piperidyl)benzamide]
< 100000 nM	< 1000 nM	COc1ccc(NC(=O)c2ccc(Nc3ncc4c(n3)N(C3CCCC3)CCC(=O)N4C)c(OC)c2)cc1 [Example 77, 4-[(6-cyclopentyl-2-methyl-3-oxo-2,6,8,10-tetrazabicyclo[5.4.0]undeca-8,10,12-trien-9-yl)amino]-3-methoxy-N-(4-methoxyphenyl)benzamide]
< 300 nM	< 1000 nM	COc1cc(C(=O)NC[C@@H]2CCNC2)ccc1Nc1ncc2c(n1)N(C1CCCC1)CCC(=O)N2C [Example 47, 4-[(6-cyclopentyl-2-methyl-3-oxo-2,6,8,10-tetrazabicyclo[5.4.0]undeca-8,10,12-trien-9-yl)amino]-3-methoxy-N-[[(3R)-pyrrolidin-3-yl]methyl]benzamide]

Compound	IC50 [1]	IC50 [2]
COc1cc(C(=O)NC2CN3CCC2CC3)ccc1Nc1ncc2c(n1)N(C1CCCC1)CCC(=O)N2C (stereo not shown) [Example 22, N-(1-azabicyclo[2.2.2]oct-8-yl)-4-[(6-cyclopentyl-2-methyl-3-oxo-2,6,8,10-tetrazabicyclo[5.4.0]undeca-8,10,12-trien-9-yl)amino]-3-methoxy-benzamide]	< 300 nM	< 300 nM
